Entries after “also recorded” stand apart in the source; their conditions may differ.

One experiment relates to CIPN rats (paclitaxel). Description: chemotherapy-induced peripheral neuropathy rat model CIPN, von Frey filaments. In kind it is in vivo. The following applies: I.V.; 42 days after paclitaxel. As to the method: […]
(§1) For efficacy studies, nociception was assessed in all animals from all pain models by regular behavioural monitoring, by quantifying the sensitivity to mechanical stimuli with Von Frey filaments, and consequently reflecting hyperalgesia when hypersensitive. […] Intraperitoneal administration was tested in CFA rats (23 days after CFA injection), with 10 times the nitenin quantity administered by I.V. injections. […] Oral administration of nitenin through stomach gavages (endogastric), with 100 times the quantity administered by I.V. injections, was tested in CCI rats (31 days after surgery). […]

Experiment [1] deals with voltage-activated Na+ currents of sdDRGns. Description: whole-cell voltage-clamp of voltage activated Na+ currents in sdDRGns. The following applies: 0.1 μg/ml, 0.29 μM (FIG. 1.b). In kind it is cell-based, rat. As to the method: FIG. 1 illustrates the effect of nitenin (0.1 μg/ml) on voltage activated currents recorded from small diameter Dorsal Root Ganglia neurons (sdDRGns) • a) In sdDRGns, voltage-activated outward potassium (K^+) currents were evoked by a depolarizing step to +20 mV (holding potential of −70 mV) preceded by a hyperpolarizing pre-pulse to −120 mV. […] Typical voltage activated K^+ current traces recorded before and in the presence of nitenin (0.1 μg/ml); lower trace corresponding to the current subtraction, fit with a single-exponential function (time constant τ˜150 ms). ii.
For the electrophysiological recordings of the ex vivo material, voltage-clamp recordings were performed on neurons isolated from rat DRGs (and TGs). Recordings were performed from the soma that often contained the proximal fraction of axon, 1 hour after the end of the cell isolation process (includes enzymatic and mechanical treatment).

In experiment [2] the test system is CFA rats (knee administrations of Complete Freund's Adjuvant on Wistar rats). Description: inflammatory pain rat model CFA, von Frey filaments. In kind it is in vivo. The protocol: […]
as §1

Experiment [3] has as its system CCI rats (chronic constriction of the sciatic nerve of Wistar rats). The experiment can be described thus: neuropathic pain rat model CCI, von Frey filaments. In kind it is in vivo. From the text: FIG. 4 illustrates behavioral readouts as measures of pain during treatment with nitenin on a Neuropatic pain rat model CCI (Chronic constriction injury). Typical experiment using a group of Wistar rats subjected to four unilateral sciatic nerve constrictions. Values refer to the mechanical sensitivity to stimulation using calibrated von Frey Filaments, and consequently reflecting hyperalgesia when hypersensitive (black filled markers—ipsilateral, operated leg; Open markers—contralateral, uninjured leg). Dotted line refers to the average value of the ipsilateral paw prior to surgery. a) Induction of the model showing that 3 days after operation, the mechanical sensitivity of the ipsilateral limb increases markedly, whereas the one associated with the contralateral leg remained unchanged, similar to baseline values. This tendency is maintained during 26 days after surgery, day that treatment with nitenin was performed (circle with dotted line). b) Effect of intravenous injection of nitenin (estimated plasma concentration of 1 μg/ml) on the mechanical sensitivity of the ipsilateral leg. For clarity, the data of the contralateral limb is not shown but it remains unaltered. […]
For efficacy studies, nociception was assessed in all animals from all pain models by regular behavioural monitoring, by quantifying the sensitivity to mechanical stimuli with Von Frey filaments, and consequently reflecting hyperalgesia when hypersensitive. […] Intraperitoneal administration was tested in CFA rats (23 days after CFA injection), with 10 times the nitenin quantity administered by I.V. injections. […]

For `C/C(=C\C1C/C(=C/CCc2ccoc2)C(=O)O1)CCCc1ccoc1` (centres unmarked) [nitenin], the “sensitivity to mechanical stimuli, both paws” value in the experiment on CIPN rats (paclitaxel) is “intense decrease of sensitivity to mechanical stimuli”. Moreover, the “effect on voltage activated Na+ currents” value in experiment [1] was “absence of effect”; in experiment [1] (listed as Nitenin) it was “not being able to induce relevant changes”. In addition, in experiment [2] (I.V. 1 μg/mL of blood, 3, 18 and 23 days after CFA), the “sensitivity to mechanical stimuli (von Frey)” value is “noticeable decrease of sensitivity to mechanical stimuli”. Further, the “mitigation effect of pain (score values)” value in experiment [2] (intraperitoneal, 10 times the I.V. quantity, 23 days after CFA injection) is “clear mitigation effect of pain with score values reaching control levels”. Also, the “behavioural scores of the contralateral (uninjured) paw” value in experiment [3] (I.V. 1 μg/mL of blood) is listed as “no changes”. Besides, in experiment [3] (I.V. 1 μg/mL of blood ~0.06 mg/Kg, acute (3 days) and chronic (22 to 31 days)), the “mechanical sensitivity of ipsilateral paw (von Frey)” value was “reaching values not different to those obtained during baseline; also recorded: noticeable decrease of sensitivity to mechanical stimuli”. In addition, the “time of maximum effect after injection” value in experiment [3] (intravenous, estimated plasma concentration 1 μg/ml, 26 days after surgery) is recorded as around 1 h.

The record behind these values is patent publication US12336977B2, “Nitenin analogue compounds and their use in the treatment of chronic and acute pain” (SEA4US-BIOTECNOLOGIA E RECURSOS MARINHOS, LDA., priority 2019, dated 2025).
